# Assay results from patent US20150267232A1, “IN VIVO AND IN VITRO CARBENE INSERTION AND NITRENE TRANSFER REACTIONS CATALYZED BY HEME ENZYMES” (California Institute of Technology, priority 2012, published 2015).
# Legend:
# Format in all cases: biochemical
# [1] = Small-scale anaerobic C—H amination with purified enzymes, azide 1; conditions: for Product (3) / TTN on substrate 1: 1% loading of hemin
# How it was run: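 Purified P450 or P411 enzymes (0.1-0.5% catalyst loading) in 400 μL reactions of 0.1 M potassium phosphate pH 8.0 with a catalase/glucose oxidase oxygen-depletion system were made anaerobic under argon, given 10 μL of 80 mM arylsulfonyl azide in DMSO, and stirred 24 h at room temperature. After HCl quench and acetonitrile addition, sultam was quantified by HPLC at 220 nm against an internal standard; enantioselectivity was measured by chiral HPLC.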
# [2] = P450/hemin reactions with azide 5 under anaerobic conditions (C—H amination)
# Source text: Benzosultam 6, arylsulfonamide 7 (*), and dimer 12 (#) are defined in FIG. 10. […] For instance, B1SYN (e.g., P450BM3 with 23 amino acid substitutions) catalyzed over 30 TTN for form the benzosultam.
# Small-Scale Amination Reactions Under Anaerobic Conditions. […]
# [3] = P450/hemin reactions with azide 8 under anaerobic conditions (C—H amination)
# Source text: Benzosultam 9 (a), arylsulfonamide 13 (c), alcohol 14 (b), alkene 15 and dimer 16 (d) are defined in FIG. 13. […] B1SYN (e.g., P450BM3 with 23 amino acid substitutions) catalyzed about 45 TTN for form the benzosultam.
# Small-Scale Amination Reactions Under Anaerobic Conditions.
# Reaction conditions were as described herein and analyzed by reverse-phase LC-MS (Agilent 1100 series LC-MSD), acetonitrile-water, using a C18 column (Peeke Scientific, Kromasil 100 5 μm, 50×4.6 mm ID). Acetonitrile gradient for 2-isopropylbenzenesulfonyl azide reactions: 10-22% (8 min), 22-60% (10 min), 60% (2 min), at 1.5 mL min^−1. Retention times: alcohol 10 (6.3 min), sulfonamide 2 (10.6 min), dimer 4 (12.3 min), azide 1 (17.6 min).
# [4] = cat. loading 1 mol %, reductant None
substance,measurement,setting,value
hemin,Product (3) / TTN on substrate 1,[1],3.1
same,Product (3) / TTN on substrate 1,[1]; listed as hemin,3
same,% activity,[1]; CS-P450 + Hemin,0%
same,TTN,[1]; CS-P450 + Hemin (2 μM hemin),0
same,stereochemical outcome of product 3,[1]; reaction with hemin,racemic
same,TTN arylsulfonamide 7,"[2]; 1 mol %, 2 mM NADPH",1
same,TTN benzosultam 6,"[2]; 1 mol %, 2 mM NADPH",0
same,arylsulfonamide 7 (% yield),"[2]; 1 mol %, 2 mM NADPH",(1) %
same,TTN arylsulfonamide 7,"[2]; 1 mol %, 2 mM Na2S2O4",5
same,TTN benzosultam 6,"[2]; 1 mol %, 2 mM Na2S2O4",0
same,arylsulfonamide 7 (% yield),"[2]; 1 mol %, 2 mM Na2S2O4",(5) %
same,TTN arylsulfonamide 7,"[2]; 1 mol %, 10 mM Na2S2O4",58
same,TTN benzosultam 6,"[2]; 1 mol %, 10 mM Na2S2O4",0
same,arylsulfonamide 7 (% yield),"[2]; 1 mol %, 10 mM Na2S2O4",(58) %
same,TTN arylsulfonamide 7,"[2]; 10 mol %, 2 mM Na2S2O4",1
same,TTN benzosultam 6,"[2]; 10 mol %, 2 mM Na2S2O4",0
same,arylsulfonamide 7 (% yield),"[2]; 10 mol %, 2 mM Na2S2O4",(10) %
same,TTN arylsulfonamide 7,"[2]; 10 mol %, 10 mM Na2S2O4",6
same,TTN benzosultam 6,"[2]; 10 mol %, 10 mM Na2S2O4",0
same,arylsulfonamide 7 (% yield),"[2]; 10 mol %, 10 mM Na2S2O4",(60) %
same,TTN arylsulfonamide 7,[2]; [4],0
same,TTN benzosultam 6,[2]; [4],0
same,TTN arylsulfonamide 13,"[3]; 1 mol %, 2 mM NADPH",1
same,TTN benzosultam 9,"[3]; 1 mol %, 2 mM NADPH",0
same,arylsulfonamide 13 (% yield),"[3]; 1 mol %, 2 mM NADPH",(1) %
same,TTN arylsulfonamide 13,"[3]; 1 mol %, 2 mM Na2S2O4",1
same,TTN benzosultam 9,"[3]; 1 mol %, 2 mM Na2S2O4",4
same,arylsulfonamide 13 (% yield),"[3]; 1 mol %, 2 mM Na2S2O4",(1) %
same,benzosultam 9 (% yield),"[3]; 1 mol %, 2 mM Na2S2O4",(4) %
same,TTN arylsulfonamide 13,"[3]; 1 mol %, 10 mM Na2S2O4",23
same,TTN benzosultam 9,"[3]; 1 mol %, 10 mM Na2S2O4",61
same,arylsulfonamide 13 (% yield),"[3]; 1 mol %, 10 mM Na2S2O4",(23) %
same,benzosultam 9 (% yield),"[3]; 1 mol %, 10 mM Na2S2O4",(61) %
same,TTN arylsulfonamide 13,"[3]; 1 mol %, reductant None",0
same,TTN benzosultam 9,"[3]; 1 mol %, reductant None",0
same,TTN arylsulfonamide 13,"[3]; 10 mol %, 2 mM Na2S2O4",0
same,TTN benzosultam 9,"[3]; 10 mol %, 2 mM Na2S2O4",0
same,TTN arylsulfonamide 13,"[3]; 10 mol %, 10 mM Na2S2O4",3
same,TTN benzosultam 9,"[3]; 10 mol %, 10 mM Na2S2O4",4
same,arylsulfonamide 13 (% yield),"[3]; 10 mol %, 10 mM Na2S2O4",(30) %
same,benzosultam 9 (% yield),"[3]; 10 mol %, 10 mM Na2S2O4",(40) %
